From ChEMBL document CHEMBL1201862, “PubChem BioAssay data set” (2004)
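Results reflect a 48-hour exposure of cells in 96-well plates to compound at five concentrations. The concentration for 50% growth inhibition is given as GI50.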 Active and inactive are the calls of the source. No stated cut-off is given here; in the data, active = GI50 up to about 1.1 µM and inactive = higher.

Tests used:
Assay in all cases: NCI tumour cell line growth inhibition, 48 h
SF-295 = tested on: SF-295
LOX IMVI = tested on: LOX IMVI
K562 = tested on: K562
OVCAR-8 = tested on: OVCAR-8
Malme-3M = tested on: Malme-3M
HL-60 = tested on: HL-60
SF-539 = tested on: SF-539
MOLT-4 = tested on: MOLT-4
MCF7 = tested on: MCF7
RXF 393 = tested on: RXF 393
U-251 = tested on: U-251
HCT-116 = tested on: HCT-116
BT-549 = tested on: BT-549
SN12C = tested on: SN12C
NCI/ADR-RES = tested on: NCI/ADR-RES
UACC-257 = tested on: UACC-257
SNB-19 = tested on: SNB-19
CCRF-CEM = tested on: CCRF-CEM
NCI-H23 = tested on: NCI-H23
UO-31 = tested on: UO-31

Row | SMILES | GI50 (SF-295) | GI50 (LOX IMVI) | GI50 (K562) | GI50 (OVCAR-8) | GI50 (Malme-3M) | GI50 (HL-60) | GI50 (SF-539) | GI50 (MOLT-4) | GI50 (MCF7) | GI50 (RXF 393) | GI50 (U-251) | GI50 (HCT-116) | GI50 (BT-549) | GI50 (SN12C) | GI50 (NCI/ADR-RES) | GI50 (UACC-257) | GI50 (SNB-19) | GI50 (CCRF-CEM) | GI50 (NCI-H23) | GI50 (UO-31)
1 | Nc1nc(N)c2c3c(cnc2n1)CC(c1ccccc1)CC3 (stereo unspecified) | 10.1 µM (inactive) | 1.71 µM (inactive) | 0.875 µM (active) | 7.16 µM (inactive) | 31.5 µM (inactive) | 6.43 µM (inactive) | 14.3 µM (inactive) | 50.5 µM (inactive) | 11.7 µM (inactive) | 17.7 µM (inactive) | 10.7 µM (inactive) | 2.86 µM (inactive) | 17 µM (inactive) | 17.3 µM (inactive) | 20.3 µM (inactive) | 65.3 µM (inactive) | 13.6 µM (inactive) | – | – | –
2 | CCOC(=O)Cc1ccc(Nc2nc3ccccc3nc2C(=O)OCC)cc1 | 32.9 µM (inactive) | > 100 µM (inactive) | – | 56.1 µM (inactive) | 52.1 µM (inactive) | > 100 µM (inactive) | 37.1 µM (inactive) | > 100 µM (inactive) | 61.7 µM (inactive) | 24 µM (inactive) | 51.3 µM (inactive) | > 100 µM (inactive) | 26.2 µM (inactive) | > 100 µM (inactive) | 50.7 µM (inactive) | > 100 µM (inactive) | 11.2 µM (inactive) | > 100 µM (inactive) | 47.5 µM (inactive) | 14.5 µM (inactive)
3 | CSC(SC)=C(C#N)C(=O)Nc1cccc(Cl)c1 | 42.6 µM (inactive) | 93.3 µM (inactive) | 32.4 µM (inactive) | 48.8 µM (inactive) | 79.4 µM (inactive) | 15.4 µM (inactive) | 57.5 µM (inactive) | 20.5 µM (inactive) | 34.8 µM (inactive) | > 100 µM (inactive) | 76.7 µM (inactive) | 30.6 µM (inactive) | 36.6 µM (inactive) | > 100 µM (inactive) | 32.5 µM (inactive) | > 100 µM (inactive) | > 100 µM (inactive) | 33.1 µM (inactive) | – | –
4 | O=c1oc2c([N+](=O)[O-])cc([N+](=O)[O-])cc2c2ccccc12 | > 100 µM (inactive) | > 100 µM (inactive) | > 100 µM (inactive) | > 100 µM (inactive) | > 100 µM (inactive) | > 100 µM (inactive) | > 100 µM (inactive) | > 100 µM (inactive) | > 100 µM (inactive) | > 100 µM (inactive) | > 100 µM (inactive) | > 100 µM (inactive) | 59.6 µM (inactive) | > 100 µM (inactive) | > 100 µM (inactive) | > 100 µM (inactive) | > 100 µM (inactive) | > 100 µM (inactive) | > 100 µM (inactive) | –
5 | CCn1c2ccccc2c2nnc(NCCCO)nc21 | > 100 µM (inactive) | > 100 µM (inactive) | > 100 µM (inactive) | > 100 µM (inactive) | > 100 µM (inactive) | > 100 µM (inactive) | > 100 µM (inactive) | 58.2 µM (inactive) | > 100 µM (inactive) | 57.9 µM (inactive) | > 100 µM (inactive) | > 100 µM (inactive) | > 100 µM (inactive) | > 100 µM (inactive) | > 100 µM (inactive) | > 100 µM (inactive) | > 100 µM (inactive) | > 100 µM (inactive) | > 100 µM (inactive) | –
6 | COCCN(CCNC(=O)c1cccc2c(N)c3cccc(C)c3nc12)CCOC | 2.77 µM (inactive) | 1.04 µM (active) | 0.449 µM (active) | 0.807 µM (active) | 0.695 µM (active) | 0.794 µM (active) | 0.931 µM (active) | 0.144 µM (active) | 0.136 µM (active) | 1.93 µM (inactive) | 3.47 µM (inactive) | 0.9 µM (active) | 5.7 µM (inactive) | 0.582 µM (active) | 4.4 µM (inactive) | 4.63 µM (inactive) | 2.48 µM (inactive) | 1.14 µM (inactive) | 0.78 µM (active) | –
